For 8 cell lines, relative viability results are on record in the supplement of paper PMC10307832.

Assay in all cases: relative viability (nuclei count vs DMSO), 5 days (fraction); higher = more cells survive
Compound in the assay “Apatinib + Alpelisib”: N#CC1(c2ccc(NC(=O)c3cccnc3NCc3ccncc3)cc2)CCCC1 [Apatinib] + Cc1nc(NC(=O)N2CCC[C@H]2C(N)=O)sc1-c1ccnc(C(C)(C)C(F)(F)F)c1 [Alpelisib] (partner 2 µM)
An outline of the steps:
(§1)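 Lung cancer cell lines in 1536-well plates were dosed by pin tool the day after seeding, either with one drug alone or with a fixed anchor-drug dose plus five library-drug doses (not always all listed) in √10 steps. After 5 days, cells were fixed and their nuclei stained in one step (final 0.05% Triton X-100, 1% formaldehyde, 1 ug/ml Hoechst), then counted on 4× images. Relative viability is the nuclei count in treated wells divided by that in vehicle wells. Values are medians of duplicate plates.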

Compound in the assay “Apatinib + Lapatinib”: N#CC1(c2ccc(NC(=O)c3cccnc3NCc3ccncc3)cc2)CCCC1 [Apatinib] + CS(=O)(=O)CCNCc1ccc(-c2ccc3ncnc(Nc4ccc(OCc5cccc(F)c5)c(Cl)c4)c3c2)o1 [Lapatinib] (partner 2 µM)
An outline of the steps: as §1

Compound in the assay “Metformin + Decitabine”: CN(C)C(=N)NC(=N)N [Metformin] + Nc1ncn([C@H]2C[C@H](O)[C@@H](CO)O2)c(=O)n1 [Decitabine] (partner 2 µM)
An outline of the steps:
as §1

Compound in the assay “Metformin + Vorinostat”: CN(C)C(=N)NC(=N)N [Metformin] + O=C(CCCCCCC(=O)Nc1ccccc1)NO [Vorinostat] (partner 1 µM)
In short, it runs like this:
as §1

In the case of NCI-H1651, the relative viability with Apatinib + Alpelisib (first compound 0.08 µM) came out at 1.03; in the assay with Apatinib + Alpelisib (first compound 0.253 µM) it was 1.11; with Apatinib + Alpelisib (first compound 0.8 µM), 0.786; with Apatinib + Alpelisib (first compound 2.53 µM) it was 0.851; with Apatinib + Alpelisib (first compound 8 µM), 0.83; in the assay with Apatinib + Lapatinib (first compound 0.08 µM), 0.914. Moreover, the relative viability was 0.909 with Apatinib + Lapatinib (first compound 0.253 µM); 0.709 with Apatinib + Lapatinib (first compound 0.8 µM); 0.698 with Apatinib + Lapatinib (first compound 2.53 µM); 0.76 with Apatinib + Lapatinib (first compound 8 µM); 0.485 in the assay with Metformin + Decitabine (first compound 10 µM); 0.687 in the assay with Metformin + Decitabine (first compound 31.62 µM). For the same cell line, the relative viability in the assay with Metformin + Decitabine (first compound 100 µM) was 0.572; in the assay with Metformin + Decitabine (first compound 316.23 µM), 0.476; with Metformin + Decitabine (first compound 1000 µM), 0.755; in the assay with Metformin + Vorinostat (first compound 10 µM) it was 0.505; with Metformin + Vorinostat (first compound 31.62 µM), 0.652; with Metformin + Vorinostat (first compound 100 µM), 0.568. In addition, the relative viability is 0.614 with Metformin + Vorinostat (first compound 316.23 µM) and 0.608 with Metformin + Vorinostat (first compound 1000 µM).

On to EKVX, for which the relative viability with Apatinib + Alpelisib (first compound 0.08 µM) was found to be 0.92; with Apatinib + Alpelisib (first compound 0.253 µM) it was 0.861; in the assay with Apatinib + Alpelisib (first compound 0.8 µM) it was 0.882; in the assay with Apatinib + Alpelisib (first compound 2.53 µM) it was 0.761; in the assay with Apatinib + Alpelisib (first compound 8 µM), 0.774; in the assay with Apatinib + Lapatinib (first compound 0.08 µM), 0.186. Further, the relative viability turned out to be 0.131 in the assay with Apatinib + Lapatinib (first compound 0.253 µM); 0.229 with Apatinib + Lapatinib (first compound 0.8 µM); 0.186 with Apatinib + Lapatinib (first compound 2.53 µM); 0.188 with Apatinib + Lapatinib (first compound 8 µM); 0.302 in the assay with Metformin + Decitabine (first compound 31.62 µM); 0.369 with Metformin + Decitabine (first compound 100 µM). Further, the relative viability amounted to 0.325 with Metformin + Decitabine (first compound 316.23 µM); 0.322 with Metformin + Decitabine (first compound 1000 µM); 0.67 in the assay with Metformin + Vorinostat (first compound 31.62 µM); 0.655 with Metformin + Vorinostat (first compound 100 µM); 0.644 in the assay with Metformin + Vorinostat (first compound 316.23 µM); 0.762 with Metformin + Vorinostat (first compound 1000 µM).

As to CAL-12T, the relative viability in the assay with Apatinib + Alpelisib (first compound 0.08 µM) was found to be 1.11; with Apatinib + Alpelisib (first compound 0.253 µM), 1.13; in the assay with Apatinib + Alpelisib (first compound 0.8 µM), 1.22; in the assay with Apatinib + Alpelisib (first compound 2.53 µM), 1.04; in the assay with Apatinib + Alpelisib (first compound 8 µM), 1.04; with Apatinib + Lapatinib (first compound 0.08 µM), 0.736. The relative viability stood at 0.608 with Apatinib + Lapatinib (first compound 0.253 µM); 0.778 in the assay with Apatinib + Lapatinib (first compound 0.8 µM); 0.575 with Apatinib + Lapatinib (first compound 2.53 µM); 0.589 with Apatinib + Lapatinib (first compound 8 µM); 0.729 with Metformin + Vorinostat (first compound 10 µM); 0.742 with Metformin + Vorinostat (first compound 31.62 µM). In addition, the relative viability was determined as 0.585 in the assay with Metformin + Vorinostat (first compound 100 µM), 0.691 with Metformin + Vorinostat (first compound 316.23 µM) and 0.743 in the assay with Metformin + Vorinostat (first compound 1000 µM).

For the cell line NCI-H358, the relative viability with Apatinib + Alpelisib (first compound 0.08 µM) amounted to 0.87; with Apatinib + Alpelisib (first compound 0.253 µM) it was 0.914; with Apatinib + Alpelisib (first compound 0.8 µM), 0.831; with Apatinib + Alpelisib (first compound 2.53 µM) it was 0.882; with Apatinib + Alpelisib (first compound 8 µM), 0.781; in the assay with Apatinib + Lapatinib (first compound 0.08 µM), 0.47. In addition, the relative viability was found to be 0.397 with Apatinib + Lapatinib (first compound 0.253 µM); 0.474 in the assay with Apatinib + Lapatinib (first compound 0.8 µM); 0.439 with Apatinib + Lapatinib (first compound 2.53 µM); 0.403 with Apatinib + Lapatinib (first compound 8 µM); 0.202 with Metformin + Decitabine (first compound 10 µM); 0.225 in the assay with Metformin + Decitabine (first compound 31.62 µM). Also, the relative viability in the assay with Metformin + Decitabine (first compound 100 µM) stood at 0.214; with Metformin + Decitabine (first compound 316.23 µM), 0.253; in the assay with Metformin + Decitabine (first compound 1000 µM) it was 0.213; with Metformin + Vorinostat (first compound 10 µM), 0.546; in the assay with Metformin + Vorinostat (first compound 31.62 µM), 0.584; with Metformin + Vorinostat (first compound 100 µM), 0.577. Further, the results for the relative viability with Metformin + Vorinostat (first compound 316.23 µM) and with Metformin + Vorinostat (first compound 1000 µM) were 0.578 and 0.525, respectively.

On to PC-14, for which the relative viability in the assay with Apatinib + Alpelisib (first compound 0.08 µM) was 0.935; with Apatinib + Alpelisib (first compound 0.253 µM), 0.861; with Apatinib + Alpelisib (first compound 0.8 µM), 0.876; with Apatinib + Alpelisib (first compound 2.53 µM), 0.875; with Apatinib + Alpelisib (first compound 8 µM), 0.838; with Apatinib + Lapatinib (first compound 0.08 µM), 0.384. The relative viability with Apatinib + Lapatinib (first compound 0.253 µM) was 0.29; in the assay with Apatinib + Lapatinib (first compound 0.8 µM), 0.283; with Apatinib + Lapatinib (first compound 2.53 µM), 0.277; with Apatinib + Lapatinib (first compound 8 µM), 0.23; with Metformin + Decitabine (first compound 10 µM) it was 0.27; with Metformin + Decitabine (first compound 31.62 µM), 0.291. Also, the relative viability with Metformin + Decitabine (first compound 100 µM) came out at 0.186; with Metformin + Decitabine (first compound 316.23 µM), 0.211; in the assay with Metformin + Decitabine (first compound 1000 µM), 0.235; with Metformin + Vorinostat (first compound 10 µM) it was 0.618; in the assay with Metformin + Vorinostat (first compound 31.62 µM) it was 0.598; with Metformin + Vorinostat (first compound 100 µM), 0.567. The relative viability with Metformin + Vorinostat (first compound 316.23 µM) turned out to be 0.415; with Metformin + Vorinostat (first compound 1000 µM) it was 0.533.

Regarding NCI-H2228, the relative viability in the assay with Apatinib + Alpelisib (first compound 0.08 µM) is 0.785; with Apatinib + Alpelisib (first compound 0.253 µM), 0.738; in the assay with Apatinib + Alpelisib (first compound 0.8 µM) it was 0.648; with Apatinib + Alpelisib (first compound 2.53 µM), 0.542; in the assay with Apatinib + Alpelisib (first compound 8 µM) it was 0.527; with Apatinib + Lapatinib (first compound 0.08 µM) it was 1.01. Moreover, the relative viability was 1.05 with Apatinib + Lapatinib (first compound 0.253 µM); 0.986 with Apatinib + Lapatinib (first compound 0.8 µM); 0.835 in the assay with Apatinib + Lapatinib (first compound 2.53 µM); 0.644 in the assay with Apatinib + Lapatinib (first compound 8 µM); 0.843 with Metformin + Vorinostat (first compound 10 µM); 0.672 with Metformin + Vorinostat (first compound 31.62 µM). The figures for the relative viability with Metformin + Vorinostat (first compound 100 µM), with Metformin + Vorinostat (first compound 316.23 µM) and with Metformin + Vorinostat (first compound 1000 µM) were 0.825, 0.597 and 0.635, respectively.

EBC-1: the relative viability with Apatinib + Alpelisib (first compound 0.08 µM) is 0.844; with Apatinib + Alpelisib (first compound 0.253 µM), 0.935; in the assay with Apatinib + Alpelisib (first compound 0.8 µM), 0.88; in the assay with Apatinib + Alpelisib (first compound 2.53 µM), 0.734; in the assay with Apatinib + Alpelisib (first compound 8 µM), 0.404; with Apatinib + Lapatinib (first compound 0.08 µM), 0.194. In addition, the relative viability came out at 0.197 in the assay with Apatinib + Lapatinib (first compound 0.253 µM), 0.235 with Apatinib + Lapatinib (first compound 0.8 µM), 0.231 in the assay with Apatinib + Lapatinib (first compound 2.53 µM) and 0.237 with Apatinib + Lapatinib (first compound 8 µM).

Turning to NCI-H1648, the relative viability with Metformin + Decitabine (first compound 31.62 µM) turned out to be 0.512; with Metformin + Decitabine (first compound 100 µM), 0.555; in the assay with Metformin + Decitabine (first compound 316.23 µM) it was 0.535; with Metformin + Decitabine (first compound 1000 µM), 0.656; in the assay with Metformin + Vorinostat (first compound 31.62 µM), 0.5; in the assay with Metformin + Vorinostat (first compound 100 µM), 1.07. Further, the figures for the relative viability with Metformin + Vorinostat (first compound 316.23 µM) and in the assay with Metformin + Vorinostat (first compound 1000 µM) were 0.703 and 0.91, respectively.
